{"source": "patent US20230270148A1", "about": "“BITTER BLOCKERS AND RELATED METHODS OF USE” (Conagen Inc., priority 2020, published 2023)", "key": {"CBD isolate nanoemulsion": {"system": "CBD isolate nanoemulsion", "assay": "Sensory evaluation: bitterness reduction of CBD isolate", "format": "in vivo", "settings": "dosage 50 or 100 ppm per sample", "method": "The bitterness blocker candidates listed in Table 1 were prepared into a 1% sample solution with propylene glycol and heated to ensure complete solubilization. […] A CBD isolate was emulsified into a water-soluble nanoemulsion first, to which was added the respective sample solution. […] A trained sensory evaluator was asked to estimate the perceived bitterness reduction against the control, as well as to provide comments on how the addition of the individual sample solution modulated the taste and mouth feel profile of the resulting nanoemulsion."}, "[1]": {"system": "bitter-responsive human taste bud tissue-derived cells (hTBEC)", "assay": "ATP secretion detection assay (luminescence)", "format": "cell-based", "method": "The bitter blocker candidates were further characterized using bitter-responsive human taste bud tissue-derived cells (hTBEC) platforms and bioassays. Bitter-responsive hTBECs were treated with hitter blocker candidates and various bitter agonists to assess the efficacy of each bitter blocker candidate in reducing the bitterness of each of the various bitter agonists.\nOne industry standard bitter agonist was used as a control (L-Praziquantel), and five bitter blocker controls were used (Senomyx BB68, STX-001, sodium gluconate, eridictyol, and homoeridictyol).\nBB09, BB11, and BB13 were first tested at various concentrations in combination with 100 μM Dextromethorphan-HBr.\nNext, bitter blocker concentration ranges were narrowed (100 μM-1,000 μM) and compared to a fixed concentration of stimulus. […] BB13 was evaluated further by real time ATP secretion detection in pooled hTBEC 66 cells treated with 300 μM Theobromine.\nEach culture was treated with BB09, BB11, BB13, STX001, or Senomyx BB68, as well as either Dextromethorphan-HBr at 1000 μM (FIGS. 18A-18C), Theobromine at 1,000 μM (FIGS. 19A-19C), Rebaudioside A at 1 mM (FIGS. 20A-20C), or Caffeine at 3 mM (FIGS. 21A-21C)."}}, "data": [{"smiles": "COc1cc([C@@H]2CC(=O)c3c(O)cc(O)cc3O2)ccc1O[C@@H]1O[C@H](CO)[C@@H](O)[C@H](O)[C@H]1O", "note": "[BB11, Homoeriodictyol 4′-O-glucoside]", "values": [{"measurement": "Comments", "setting": "CBD isolate nanoemulsion", "result": "Nice upfront bitterness reduction"}, {"measurement": "Estimated % bitterness reduction", "setting": "CBD isolate nanoemulsion", "result": 60, "unit": "%"}, {"measurement": "inhibition of luminescence activity of Dextromethorphan-HBr (ATP secretion)", "setting": "[1]; 100 μM Dextromethorphan-HBr, various blocker concentrations (FIG. 12)", "result": "able to inhibit"}, {"measurement": "inhibition of the L-Praziquantel response (ATP secretion)", "setting": "[1]; 400 μM L-Praziquantel, pooled donor-derived hTBEC (FIG. 13)", "result": "showed inhibition"}, {"measurement": "inhibition of the bitter agonists (ATP secretion)", "setting": "[1]; hTBEC 66, hTBEC 56, hTBEC Donor H, Dextromethorphan-HBr at 1000 μM, Theobromine 1,000 μM, Rebaudioside A 1 mM or Caffeine 3 mM (FIGS. 18-21)", "result": "trends of inhibition in most cases"}]}]}
